Laboratory results reported in patent US20240050563A1, “Combination Treatment of Cancer” (Ares Trading S.A., priority 2020, published 2024).

Tested on: MC38 colon carcinoma cells
Assay: Syngeneic MC38 tumor model (tumor volume monitoring)
Type: in vivo, C57/BL6 mice
Conditions: MCT4 inhibitor 30 mg/kg p.o. qd, bintrafusp alfa 492 μg/animal i.v. day 0, 3, 6; for % T/C: Day 20, versus Group 1 control (vehicle + mutant non-binding anti-PD-L1 antibody); for reduction of tumor growth: MC38 tumor-bearing C57/BL6 mice, study end day 20
Experimental: MC38 colon carcinoma cells were obtained from Scripps Research Institute. Cells were tested and verified to be free of adventitious viruses and mycoplasma.
MC38 cells were cultured in DMEM containing 4.5 g/L D-glucose, 2 mM glutamine, and 110 mg/L sodium pyruvate and supplemented with 10% FBS. All cells were maintained at 37° C. and 5% CO2 in aseptic conditions. Cells were passaged upon reaching 50-85% confluence for a total of 2 to 15 passages prior to in vivo implantation. Cells were harvested by trypsinization with TrypLE Express and viable cell counts were determined using a Countess or […] cell counter and trypan blue exclusion staining.
Female C57/BL6 mice were obtained from Charles River Laboratories. They were inoculated (s.c. in the right dorsal flank) with 1×10^6 MC38 cells in 0.1 mL sterile PBS. Treatment was initiated when tumors reached an average volume of approximately 50-80 mm^3 (Day 0).
Test groups of the MC38 tumor-bearing mice (8 animals in each group) were treated with both vehicle (20% Kleptose (HPB) in 50 mM Phosphate pH 7.4 buffer) and a mutant, non-binding anti-PD-L1 antibody (Group 1, control), the MCT4 inhibitor described as Compound 367 in WO 2020/127960 (5-{2-[5-chloro-2-(5-ethoxyquinoline-8-sulfonamido)phenyl]ethynyl}-4-methoxypyridine-2-carboxylic acid; commercially available from, e.g., Selleck Chemicals) (Group 2), bintrafusp alfa (Group 3), or a combination of Compound 367 and bintrafusp alfa (Group 4). In Group 1 (Control Group) the vehicle was administered at 10 ml/kg animal weight, p.o. once daily and Mut PD-L1 i.v. at day 0, 3, and 6 (400 μg/animal). In Groups 2 and 4 the MCT4 inhibitor was administered at 30 mg/kg animal weight (p.o. administration, once per day (qd)). In Groups 3 and 4 bintrafusp alfa was administered 492 μg/animal at day 0, 3, and 6 (i.v. administration). At day 20 the study was terminated. Efficacy of the treatment was evaluated by monitoring tumor volume over the course of the study.

Compound | % T/C [%] | reduction of tumor growth [%]
CCOc1ccc(S(=O)(=O)Nc2ccc(Cl)cc2C#Cc2cnc(C(=O)O)cc2OC)c2ncccc12 [MCT4 inhibitor, 5-{2-[5-chloro-2-(5-ethoxyquinoline-8-sulfonamido)phenyl]ethynyl}-4-methoxypyridine-2-carboxylic acid] | 79.1 | 20
bintrafusp alfa: anti-PD-L1:TGFβRII fusion protein, CAS 1918149-01-5; light chain SEQ ID NO: 7, heavy chain SEQ ID NO: 8 | 79.7 | 20
